Drawing on patent US9284271B2, “Compounds for the treatment of neurodegenerative diseases” (Katholieke Universiteit Leuven, K.U. Leuven R&D, priority 2010, dated 2016), this text covers EC50 for 39 molecules.

The structures appear in SMILES notation.

This test relates to M17-TAU P301L cells. The test is described as follows: Tau-induced toxicity experiment: LDH leakage of retinoic acid incubated M17-TAU P301L cells. Type of test: cell-based. The note with it: Homo sapiens, Neuroblastoma cell, 168 h; reduction of LDH activity of retinoic acid incubated M17-TAU P301L neuroblastoma cells; 7 days incubation; Promega Cytotox 96 assay. The text has this: A TAU expression plasmid was constructed by sub-cloning the cDNA of human TAU-P301L (encoding for TAU with proline 301 substituted by a leucine residue) into mammalian expression vector pcDNA3.1 resulting in plasmid pcDNA3.1-TAU P301L. Plasmids pcDNA3.1 and pcDNA3.1-TAU P301L were transfected to human neuroblastoma cells ([…]; ATCC No. CRL-2267) and independent clonal lines with the plasmids stably integrated into the genome were selected. […] Expression of the TAU P301L genes in the cell lines was confirmed by Western analysis.
In degenerated or dead cells lactate dehydrogenase (LDH) is leaked out of the cells into the extracellular environment due to a loss of plasma-membrane integrity. This principle was used to determine cytotoxicity by quantifying the level of leaked LDH into the growth medium.
The detailed method for determining TAU cytotoxicity was as follows: From appropriate precultures of M17-3.1 and M17-TAU(P301L) cells were seeded at 2500 cells/cm2 in Optimem Reduced Serum without phenol red (Gibco, Cat. 31985-047) supplemented with 1% fetal calf serum, 1 mM sodium pyruvate, 1× non-essential amino acids, 500 μg/ml G418 0.5× antibiotic/antimycotic. After 3 h of incubation at 37° C./5% CO2 1 volume of Optimem Reduced Serum (same as described above; except without fetal calf serum) supplemented with 2.5 μM retinoic acid (RA) was added. The cells were further incubated for 7 days. Subsequently, LDH activity was determined using Promega Cytotox 96 Non-Radioactive cytotoxicity assay, (Cat. G1780) according the supplier's instructions.
The M17-TAU P301L cell line made it possible to assess the ability of novel compounds to counteract TAU cytotoxicity. […] These measurements were used to calculate EC50 values of table 2.
Exemplary compounds of the present invention are shown in table 2, with their chemical name and their EC50 value (expressed in nM) as determined from example 75 in the Tau-induced toxicity experiment.
Background: LDH leaks from cells whose membrane has failed.
As usually defined, the EC50 is the concentration that produces a half-maximal response. Consider `O=C(NCCc1c[nH]c2ccc(Cl)cc12)c1ccc(-c2ccccc2)cc1` [Cpd002, N-(2-(5-chloro-1H-indol-3-yl)ethyl)biphenyl-4-carboxamide], for which the EC50 worked out at 130 nM.
The result for `O=C(NCCc1c[nH]c2ccc(F)cc12)c1ccc(-c2ccccc2)cc1` [Cpd003, N-(2-(5-fluoro-1H-indol-3-yl)ethyl)biphenyl-4-carboxamide] reads 448 nM.
The result for `Cc1ccc2[nH]cc(CCNC(=O)c3ccc(-c4ccccc4)cc3)c2c1` [Cpd004, N-(2-(5-methyl-1H-indol-3-yl)ethyl)biphenyl-4-carboxamide] reads 238 nM; that for `CCOC(=O)c1cnn(-c2ccc(C(=O)NCCc3c[nH]c4ccc(C)cc34)cc2)c1N` [Cpd005, ethyl 5-amino-1-(4-(2-(5-methyl-1H-indol-3-yl)ethylcarbamoyl)phenyl)-1H-pyrazole-4-carboxylate], 297 nM; that for `O=C(NCCc1c[nH]c2ccc(Cl)cc12)c1ccnc(N2CCOCC2)c1` [Cpd006, N-(2-(5-chloro-1H-indol-3-yl)ethyl)-2-morpholinoisonicotinamide], 876 nM.
The result for `O=C(NCCc1c[nH]c2ccc(F)cc12)c1ccnc(N2CCOCC2)c1` [Cpd007, N-(2-(5-fluoro-1H-indol-3-yl)ethyl)-2-morpholinoisonicotinamide] reads 1080 nM; that for `O=C(NCCc1c[nH]c2ccc(Cl)cc12)c1ccccc1-c1ccccc1` [Cpd008, N-(2-(5-chloro-1H-indol-3-yl)ethyl)biphenyl-2-carboxamide], 249 nM; that for `O=C(NCCc1c[nH]c2ccc(Cl)cc12)c1cccc(-c2ccccc2)c1` [Cpd010, N-(2-(5-chloro-1H-indol-3-yl)ethyl)biphenyl-3-carboxamide], 187 nM.
Molecule `Cc1cccc(C)c1-c1ccc(C(=O)NCCc2c[nH]c3ccc(Cl)cc23)cc1` [Cpd011, N-(2-(5-chloro-1H-indol-3-yl)ethyl)-2′,6′-dimethylbiphenyl-4-carboxamide] gave an EC50 of 236 nM. The EC50 values of the last two molecules are within 1.5-fold of each other.
The result for `O=C(NCCc1c[nH]c2ccc(Cl)cc12)c1cccc(-c2ccc(O)cc2)c1` [Cpd013, N-(2-(5-chloro-1H-indol-3-yl)ethyl)-4′-hydroxybiphenyl-3-carboxamide] reads 77 nM; that for `O=C(NCCc1c[nH]c2ccc(Cl)cc12)c1ccc(-c2ccc(O)cc2)cc1` [Cpd014, N-(2-(5-chloro-1H-indol-3-yl)ethyl)-4′-hydroxybiphenyl-4-carboxamide], 57 nM; that for `Cc1ccccc1-c1ccccc1C(=O)NCCc1c[nH]c2ccc(Cl)cc12` [Cpd015, N-(2-(5-chloro-1H-indol-3-yl)ethyl)-2′-methylbiphenyl-2-carboxamide], 381 nM.
The result for `Cc1cccc(-c2cccc(C(=O)NCCc3c[nH]c4ccc(Cl)cc34)c2)c1` [Cpd019, N-(2-(5-chloro-1H-indol-3-yl)ethyl)-3′-methylbiphenyl-3-carboxamide] reads 709 nM; that for `Cc1ccc(-c2ccccc2C(=O)NCCc2c[nH]c3ccc(Cl)cc23)cc1` [Cpd021, N-(2-(5-chloro-1H-indol-3-yl)ethyl)-4′-methylbiphenyl-2-carboxamide], 237 nM; that for `Cc1ccc(-c2cccc(C(=O)NCCc3c[nH]c4ccc(Cl)cc34)c2)cc1` [Cpd022, N-(2-(5-chloro-1H-indol-3-yl)ethyl)-4′-methylbiphenyl-3-carboxamide], 354 nM.
The result for `Cc1ccc(-c2ccc(C(=O)NCCc3c[nH]c4ccc(Cl)cc34)cc2)cc1` [Cpd023, N-(2-(5-chloro-1H-indol-3-yl)ethyl)-4′-methylbiphenyl-4-carboxamide] reads 235 nM.
Molecule `O=C(NCCc1c[nH]c2ccc(Cl)cc12)c1ccc(N2CCOCC2)nc1` [Cpd024, N-(2-(5-chloro-1H-indol-3-yl)ethyl)-6-morpholinonicotinamide] came in with an EC50 of 765 nM.
`O=C(NCCc1c[nH]c2ccc(Cl)cc12)c1ccccc1-n1cccn1` [Cpd025, N-(2-(5-chloro-1H-indol-3-yl)ethyl)-2-(1H-pyrazol-1-yl)benzamide] had a concentration for a half-maximal effect (EC50) of 760 nM. This EC50 and that of the molecule before are within 1.5-fold of each other.
As to `COc1cccc(-c2ccccc2C(=O)NCCc2c[nH]c3ccc(Cl)cc23)c1` [Cpd029, N-(2-(5-chloro-1H-indol-3-yl)ethyl)-3′-methoxybiphenyl-2-carboxamide], the EC50 was 523 nM.
The result for `COc1ccc(-c2ccccc2C(=O)NCCc2c[nH]c3ccc(Cl)cc23)cc1` [Cpd032, N-(2-(5-chloro-1H-indol-3-yl)ethyl)-4′-methoxybiphenyl-2-carboxamide] reads 200 nM; that for `COc1ccc(-c2cccc(C(=O)NCCc3c[nH]c4ccc(Cl)cc34)c2)cc1` [Cpd033, N-(2-(5-chloro-1H-indol-3-yl)ethyl)-4′-methoxybiphenyl-3-carboxamide], 223 nM; that for `COc1ccc(-c2ccc(C(=O)NCCc3c[nH]c4ccc(Cl)cc34)cc2)cc1` [Cpd034, N-(2-(5-chloro-1H-indol-3-yl)ethyl)-4′-methoxybiphenyl-4-carboxamide], 91 nM.
The result for `O=C(NCCc1c[nH]c2ccc(Cl)cc12)c1ccccc1-c1ccccc1F` [Cpd035, N-(2-(5-chloro-1H-indol-3-yl)ethyl)-2′-fluorobiphenyl-2-carboxamide] reads 165 nM.
The result for `O=C(NCCc1c[nH]c2ccc(Cl)cc12)c1cccc(-c2ccccc2F)c1` [Cpd036, N-(2-(5-chloro-1H-indol-3-yl)ethyl)-2′-fluorobiphenyl-3-carboxamide] reads 139 nM; that for `O=C(NCCc1c[nH]c2ccc(Cl)cc12)c1ccc(-c2ccccc2F)cc1` [Cpd037, N-(2-(5-chloro-1H-indol-3-yl)ethyl)-2′-fluorobiphenyl-4-carboxamide], 61 nM.
`O=C(NCCc1c[nH]c2ccc(Cl)cc12)c1ccccc1-c1cccc(F)c1` [Cpd038, N-(2-(5-chloro-1H-indol-3-yl)ethyl)-3′-fluorobiphenyl-2-carboxamide] had an EC50 of 226 nM.
As to `O=C(NCCc1c[nH]c2ccc(Cl)cc12)c1ccc(-c2cccc(F)c2)cc1` [Cpd039, N-(2-(5-chloro-1H-indol-3-yl)ethyl)-3′-fluorobiphenyl-4-carboxamide], it took 139 nM to reach a half-maximal effect (EC50). This EC50 is about 1.6-fold lower than that of the molecule before.
The result for `O=C(NCCc1c[nH]c2ccc(Cl)cc12)c1ccccc1-c1ccc(F)cc1` [Cpd040, N-(2-(5-chloro-1H-indol-3-yl)ethyl)-4′-fluorobiphenyl-2-carboxamide] reads 208 nM.
In turn, `O=C(NCCc1c[nH]c2ccc(Cl)cc12)c1cccc(-c2ccc(F)cc2)c1` [Cpd041, N-(2-(5-chloro-1H-indol-3-yl)ethyl)-4′-fluorobiphenyl-3-carboxamide] gave an EC50 of 186 nM.
Consider `O=C(NCCc1c[nH]c2ccc(Cl)cc12)c1ccc(-c2ccc(F)cc2)cc1` [Cpd042, N-(2-(5-chloro-1H-indol-3-yl)ethyl)-4′-fluorobiphenyl-4-carboxamide], for which a half-maximal response (EC50) required 228 nM.
`N#Cc1ccccc1-c1cccc(C(=O)NCCc2c[nH]c3ccc(Cl)cc23)c1` [Cpd043, N-(2-(5-chloro-1H-indol-3-yl)ethyl)-2′-cyanobiphenyl-3-carboxamide]: a half-maximal response (EC50) required 169 nM. The EC50 values of the last two molecules are within 1.5-fold of each other.
Molecule `N#Cc1ccccc1-c1ccc(C(=O)NCCc2c[nH]c3ccc(Cl)cc23)cc1` [Cpd044, N-(2-(5-chloro-1H-indol-3-yl)ethyl)-2′-cyanobiphenyl-4-carboxamide] yielded an EC50 of 75 nM.
The result for `O=C(NCCc1c[nH]c2ccc(Cl)cc12)c1cccc(-c2ccncc2)c1` [Cpd045, N-(2-(5-chloro-1H-indol-3-yl)ethyl)-3-(pyridin-4-yl)benzamide] reads 327 nM; that for `O=C(NCCc1c[nH]c2ccc(Cl)cc12)c1ccc(-c2ccncc2)cc1` [Cpd046, N-(2-(5-chloro-1H-indol-3-yl)ethyl)-4-(pyridin-4-yl)benzamide], 269 nM.
The result for `O=C(NCCc1c[nH]c2ccc(Cl)cc12)c1cccc(-c2cccc(F)c2)c1` [Cpd047, N-(2-(5-chloro-1H-indol-3-yl)ethyl)-3′-fluorobiphenyl-3-carboxamide] reads 408 nM; that for `N#Cc1cccc(-c2ccccc2C(=O)NCCc2c[nH]c3ccc(Cl)cc23)c1` [Cpd048, N-(2-(5-chloro-1H-indol-3-yl)ethyl)-3′-cyanobiphenyl-2-carboxamide], 232 nM; that for `N#Cc1cccc(-c2cccc(C(=O)NCCc3c[nH]c4ccc(Cl)cc34)c2)c1` [Cpd049, N-(2-(5-chloro-1H-indol-3-yl)ethyl)-3′-cyanobiphenyl-3-carboxamide], 61 nM.
The result for `N#Cc1cccc(-c2ccc(C(=O)NCCc3c[nH]c4ccc(Cl)cc34)cc2)c1` [Cpd050, N-(2-(5-chloro-1H-indol-3-yl)ethyl)-3′-cyanobiphenyl-4-carboxamide] reads 24 nM; that for `N#Cc1ccc(-c2ccccc2C(=O)NCCc2c[nH]c3ccc(Cl)cc23)cc1` [Cpd051, N-(2-(5-chloro-1H-indol-3-yl)ethyl)-4′-cyanobiphenyl-2-carboxamide], 325 nM.
